Data as given in US8436178B2, “Imidazoquinolines with immuno-modulating properties” (AstraZeneca AB, priority 2007, dated 2013).
Where a name gives a salt, the structure may show the parent alone.

Biological target: T1, human TLR7 (Homo sapiens, UniProt Q9NYK1)
T1 construct: expressed in transfected cells; host or cells: HEK293 cell line stably expressing the pNiFty2-SEAP reporter plasmid; TLR7 in pUNO vector, blasticidin selection
T1 sequence (Q9NYK1 27-1049): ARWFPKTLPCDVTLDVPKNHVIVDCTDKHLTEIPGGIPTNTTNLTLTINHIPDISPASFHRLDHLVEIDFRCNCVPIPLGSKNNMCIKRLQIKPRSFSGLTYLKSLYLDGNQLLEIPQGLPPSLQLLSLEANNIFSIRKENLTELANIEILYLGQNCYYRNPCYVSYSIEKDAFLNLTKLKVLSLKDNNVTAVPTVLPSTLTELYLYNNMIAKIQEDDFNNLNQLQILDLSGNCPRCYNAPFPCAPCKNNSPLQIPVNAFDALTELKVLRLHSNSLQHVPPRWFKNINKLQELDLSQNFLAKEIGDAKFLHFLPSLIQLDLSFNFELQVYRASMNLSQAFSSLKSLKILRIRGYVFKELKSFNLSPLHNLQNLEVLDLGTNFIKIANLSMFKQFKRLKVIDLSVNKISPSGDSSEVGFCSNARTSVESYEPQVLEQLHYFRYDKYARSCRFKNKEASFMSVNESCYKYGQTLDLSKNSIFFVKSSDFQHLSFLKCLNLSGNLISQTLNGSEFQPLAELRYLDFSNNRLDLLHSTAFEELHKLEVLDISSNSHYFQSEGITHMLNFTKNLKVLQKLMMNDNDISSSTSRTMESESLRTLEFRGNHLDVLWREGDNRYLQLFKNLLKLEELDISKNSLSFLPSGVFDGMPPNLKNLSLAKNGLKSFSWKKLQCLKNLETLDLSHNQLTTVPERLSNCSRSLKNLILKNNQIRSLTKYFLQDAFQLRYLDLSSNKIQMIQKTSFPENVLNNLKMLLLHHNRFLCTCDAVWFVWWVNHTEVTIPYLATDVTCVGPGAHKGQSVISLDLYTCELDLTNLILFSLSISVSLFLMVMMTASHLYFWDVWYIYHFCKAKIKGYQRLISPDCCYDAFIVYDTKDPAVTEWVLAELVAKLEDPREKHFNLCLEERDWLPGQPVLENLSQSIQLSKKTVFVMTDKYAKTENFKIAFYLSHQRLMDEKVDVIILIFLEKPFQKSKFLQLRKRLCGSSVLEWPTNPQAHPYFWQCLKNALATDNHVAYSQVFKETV
Experiment: Human TLR7 assay (SEAP reporter in HEK293 cells)
Type: cell-based
Settings: SEAP induction in HEK293 cells expressing human TLR7, overnight incubation at 37° C., 0.1% DMSO
Text: The most common variant sequence of human TLR7 (represented by the EMBL sequence AF240467) was cloned into the mammalian cell expression vector pUNO and transfected into a HEK293 cell line already stably expressing the pNiFty2-SEAP reporter plasmid; integration of the reporter gene was maintained by selection with the antibiotic zeocin. Transfectants with stable TLR7 expression were selected using the antibiotic blasticidin. In this reporter cell-line, expression of secreted alkaline phosphatase (SEAP) is controlled by an NFkB/ELAM-1 composite promoter comprising five NFkB sites combined with the proximal ELAM-1 promoter. TLR signaling leads to the translocation of NFkB and activation of the promoter results in expression of the SEAP gene. TLR7-specific activation was assessed by determining the level of SEAP produced following overnight incubation of the cells at 37° C. with the standard compound in the presence of 0.1% (v/v) dimethylsulfoxide (DMSO). Concentration dependent induction of SEAP production by compounds was expressed as the concentration of compound which produced half of the maximal level of SEAP induction for that compound (pEC50).

COCCc1nc2c(N)nc3ccccc3c2n1CCCN(Cc1ccc(CC(=O)OC)cc1)C(=O)CN(C)CCO [Example 38, Methyl 2-(4-((N-(3-(4-amino-2-(2-methoxyethyl)-1H-imidazo[4,5-c]quinolin-1-yl)propyl)-2-((2-hydroxyethyl)(methyl)amino)acetamido)methyl)phenyl)acetate disaccharin salt]
EC50: 1580 nM

CCCCc1nc2c(N)nc3ccccc3c2n1CCCN(Cc1cccc(CC(=O)OC)c1)C(=O)CN(C)CCOC [Example 39, Methyl 2-(3-((N-(3-(4-amino-2-butyl-1H-imidazo[4,5-c]quinolin-1-yl)propyl)-2-((2-methoxyethyl)(methyl)amino)acetamido)methyl)phenyl)acetate]
EC50: 158 nM

CCCCc1nc2c(N)nc3ccccc3c2n1CCCN(Cc1cccc(CC(=O)OC)c1)C(=O)CN(C)CCCC [Example 40, Methyl 2-(3-((N-(3-(4-amino-2-butyl-1H-imidazo[4,5-c]quinolin-1-yl)propyl)-2-(butyl(methyl)amino)acetamido)methyl)phenyl)acetate]
EC50: 126 nM

CCCCc1nc2c(N)nc3ccccc3c2n1CCCN(Cc1cccc(CC(=O)OC)c1)C(=O)CN(CCC)CCC [Example 41]
EC50: 79.4 nM

CCCCc1nc2c(N)nc3ccccc3c2n1CCCN(Cc1cccc(CC(=O)OC)c1)C(=O)CN(CCO)CCO [Example 42, Methyl 2-(3-((N-(3-(4-amino-2-butyl-1H-imidazo[4,5-c]quinolin-1-yl)propyl)-2-(bis(2-hydroxyethyl)amino)acetamido)methyl)phenyl)acetate]
EC50: 1580 nM

CCCCc1nc2c(N)nc3ccccc3c2n1CCCN(Cc1cccc(CC(=O)OC)c1)C(=O)CN(C)C1CCOCC1 [Example 43, Methyl 2-(3-((N-(3-(4-amino-2-butyl-1H-imidazo[4,5-c]quinolin-1-yl)propyl)-2-(methyl(tetrahydro-2H-pyran-4-yl)amino)acetamido)methyl)phenyl)acetate]
EC50: 126 nM

CCCCc1nc2c(N)nc3ccccc3c2n1CCCN(Cc1cccc(CC(=O)OC)c1)C(=O)CN1CCC1 [Example 44, Methyl 2-(3-((N-(3-(4-amino-2-butyl-1H-imidazo[4,5-c]quinolin-1-yl)propyl)-2-(azetidin-1-yl)acetamido)methyl)phenyl)acetate]
EC50: 251 nM

CCCCc1nc2c(N)nc3ccccc3c2n1CCCN(Cc1cccc(CC(=O)OC)c1)C(=O)CN1CC(O)C1 [Example 45, Methyl 2-(3-((N-(3-(4-amino-2-butyl-1H-imidazo[4,5-c]quinolin-1-yl)propyl)-2-(3-hydroxyazetidin-1-yl)acetamido)methyl)phenyl)acetate]
EC50: 1580 nM

CCCCc1nc2c(N)nc3ccccc3c2n1CCCN(Cc1cccc(CC(=O)OC)c1)C(=O)CN1CCCC1 [Example 46, Methyl 2-(3-((N-(3-(4-amino-2-butyl-1H-imidazo[4,5-c]quinolin-1-yl)propyl)-2-(pyrrolidin-1-yl)acetamido)methyl)phenyl)acetate]
EC50: 63.1 nM

CCCCc1nc2c(N)nc3ccccc3c2n1CCCN(Cc1cccc(CC(=O)OC)c1)C(=O)CN1CCC(O)C1 (stereo not drawn) [Example 47, Methyl 2-(3-((N-(3-(4-amino-2-butyl-1H-imidazo[4,5-c]quinolin-1-yl)propyl)-2-(3-hydroxypyrrolidin-1-yl)acetamido)methyl)phenyl)acetate]
EC50: 398 nM

CCCCc1nc2c(N)nc3ccccc3c2n1CCCN(Cc1cccc(CC(=O)OC)c1)C(=O)CN1CC[C@@H](O)C1 [Example 48, (R)-Methyl 2-(3-((N-(3-(4-amino-2-butyl-1H-imidazo[4,5-c]quinolin-1-yl)propyl)-2-(3-hydroxypyrrolidin-1-yl)acetamido)methyl)phenyl)acetate]
EC50: 398 nM

CCCCc1nc2c(N)nc3ccccc3c2n1CCCN(Cc1cccc(CC(=O)OC)c1)C(=O)CN1CCCCC1 [Example 49, Methyl 2-(3-((N-(3-(4-amino-2-butyl-1H-imidazo[4,5-c]quinolin-1-yl)propyl)-2-(piperidin-1-yl)acetamido)methyl)phenyl)acetate]
EC50: 79.4 nM

CCCCc1nc2c(N)nc3ccccc3c2n1CCCN(Cc1cccc(CC(=O)OC)c1)C(=O)CN1CCC(O)CC1 [Example 50, Methyl 2-(3-((N-(3-(4-amino-2-butyl-1H-imidazo[4,5-c]quinolin-1-yl)propyl)-2-(4-hydroxypiperidin-1-yl)acetamido)methyl)phenyl)acetate]
EC50: 501 nM

CCCCc1nc2c(N)nc3ccccc3c2n1CCCN(Cc1cccc(CC(=O)OC)c1)C(=O)CN1CCC(OC)CC1 [Example 51, Methyl 2-(3-((N-(3-(4-amino-2-butyl-1H-imidazo[4,5-c]quinolin-1-yl)propyl)-2-(4-methoxypiperidin-1-yl)acetamido)methyl)phenyl)acetate]
EC50: 200 nM

CCCCc1nc2c(N)nc3ccccc3c2n1CCCN(Cc1cccc(CC(=O)OC)c1)C(=O)CN1CCC(C(=O)N(C)C)CC1 [Example 52, Methyl 2-(3-((N-(3-(4-amino-2-butyl-1H-imidazo[4,5-c]quinolin-1-yl)propyl)-2-(4-(dimethylcarbamoyl)piperidin-1-yl)acetamido)methyl)phenyl)acetate]
EC50: 631 nM

CCCCc1nc2c(N)nc3ccccc3c2n1CCCN(Cc1cccc(CC(=O)OC)c1)C(=O)CN1CCOCC1 [Example 53, Methyl 2-(3-((N-(3-(4-amino-2-butyl-1H-imidazo[4,5-c]quinolin-1-yl)propyl)-2-morpholinoacetamido)methyl)phenyl)acetate]
EC50: 794 nM

CCCCc1nc2c(N)nc3ccccc3c2n1CCCN(Cc1cccc(CC(=O)OC)c1)C(=O)CN1C[C@@H](C)O[C@@H](C)C1 [Example 54, Methyl 2-(3-((N-(3-(4-amino-2-butyl-1H-imidazo[4,5-c]quinolin-1-yl)propyl)-2-((2S,6R)-2,6-dimethylmorpholino)acetamido)methyl)phenyl)acetate]
EC50: 1000 nM

CCCCc1nc2c(N)nc3ccccc3c2n1CCCN(Cc1cccc(CC(=O)OC)c1)C(=O)CN1CCN(C)CC1 [Example 55, Methyl 2-(3-((N-(3-(4-amino-2-butyl-1H-imidazo[4,5-c]quinolin-1-yl)propyl)-2-(4-methylpiperazin-1-yl)acetamido)methyl)phenyl)acetate]
EC50: 79.4 nM

CCCCc1nc2c(N)nc3ccccc3c2n1CCCN(Cc1cccc(CC(=O)OC)c1)C(=O)CN1CCN(CCO)CC1 [Example 56, Methyl 2-(3-((N-(3-(4-amino-2-butyl-1H-imidazo[4,5-c]quinolin-1-yl)propyl)-2-(4-(2-hydroxyethyl)piperazin-1-yl)acetamido)methyl)phenyl)acetate]
EC50: 501 nM

CCCCc1nc2c(N)nc3ccccc3c2n1CCCN(Cc1cccc(CC(=O)OC)c1)C(=O)CN1CCN(CCOC)CC1 [Example 57, Methyl 2-(3-((N-(3-(4-amino-2-butyl-1H-imidazo[4,5-c]quinolin-1-yl)propyl)-2-(4-(2-methoxyethyl)piperazin-1-yl)acetamido)methyl)phenyl)acetate]
EC50: 50.1 nM

CCCCc1nc2c(N)nc3ccccc3c2n1CCCN(Cc1cccc(CC(=O)OC)c1)C(=O)CN1CCN(C(C)=O)CC1 [Example 58, Methyl 2-(3-((2-(4-acetylpiperazin-1-yl)-N-(3-(4-amino-2-butyl-1H-imidazo[4,5-c]quinolin-1-yl)propyl)acetamido)methyl)phenyl)acetate]
EC50: 1260 nM
